In US7125990B2, “Imidazolyl derivatives as corticotropin releasing factor inhibitors” (Bristol-Myers Squibb COmpany, priority 2001, dated 2006):

Each molecule was assayed against T1, CRF1 receptors (Homo sapiens, UniProt P34998) (assay: CRF1 receptor radioligand binding assay ([125I]-oCRF competition, IMR-32 cell membranes)). Conditions: IMR-32 cell membranes, [125I]-oCRF 100 pM; read-out: Ki (CRF-1R).
T1 construct: endogenous in cells; host or cells: IMR-32 cells, transformed with 2.5 µM 5'-bromo-2'-deoxyuridine for 10 days; membrane preparation
T1 sequence (P34998 24-415): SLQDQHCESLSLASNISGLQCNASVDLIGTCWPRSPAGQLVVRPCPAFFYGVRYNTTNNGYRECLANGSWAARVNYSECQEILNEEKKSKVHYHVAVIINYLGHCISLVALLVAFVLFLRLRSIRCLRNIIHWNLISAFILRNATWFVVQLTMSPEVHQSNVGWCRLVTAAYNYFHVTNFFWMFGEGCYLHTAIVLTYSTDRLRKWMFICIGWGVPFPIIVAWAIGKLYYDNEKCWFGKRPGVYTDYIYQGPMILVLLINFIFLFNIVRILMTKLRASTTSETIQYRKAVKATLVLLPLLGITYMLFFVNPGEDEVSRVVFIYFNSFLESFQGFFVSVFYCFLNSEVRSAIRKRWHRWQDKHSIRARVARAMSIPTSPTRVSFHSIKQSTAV
Procedure, shortened: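 Buffer: Tris pH 7.2 with MgCl2, BSA, Triton X-100, aprotinin, leupeptin; reaction stopped with ice-cold wash and filtered. Nonspecific binding set with 10 μM oCRF.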
`CCCN(Cc1ccccc1)C(=O)c1c(CC)nc2n1CCN2c1c(C)cc(C)cc1C` [Example 25, 2-Ethyl-7-(2,4,6-trimethyl-phenyl)-6,7-dihydro-5H-imidazo[1,2-a]imidazole-3-carboxylic acid benzyl-propyl-amide] gave a Ki of under 10000 nM.
For `C=CCN(CCC)Cc1c(C(F)(F)F)nc2n1CCCN2c1c(C)cc(C)cc1C` [Example 95, Allyl-propyl-[2-trifluoromethyl-8-(2,4,6-trimethyl-phenyl)-5,6,7,8-tetrahydro-imidazo[1,2-a]pyrimidin-3-ylmethyl]-amine], the Ki was under 100 nM.
Molecule `Cc1cc(C)c(-n2c(Cl)cn3c(CN(CCC4CC4)CCC(F)(F)F)c(C(F)(F)F)nc23)c(C)c1` [Example 330, [6-Chloro-2-trifluoromethyl-7-(2,4,6-trimethyl-phenyl)-7H-imidazo[1,2-a]imidazol-3-ylmethyl]-(2-cyclopropyl-ethyl)-(3,3,3-trifluoro-propyl)-amine] has a Ki of under 10 nM.
`CCCN(CCc1ccccc1)Cc1c(C(F)(F)F)nc2n(-c3ccc(Cl)cc3Cl)c3ccccc3n12` [Example 182, [8-(2,4-Dichloro-phenyl)-2-trifluoromethyl-8H-1,3a,8-triaza-cyclopenta[α]inden-3-ylmethyl]-phenethyl-propyl-amine] was tested, and the Ki was under 10000 nM.
For `CCCCN(CC)Cc1c(C(F)(F)F)nc2n(-c3c(C)cc(C)cc3C)c3ncccc3n12` [Example 231, Butyl-ethyl-[2-trifluoromethyl-8-(2,4,6-trimethyl-phenyl)-8H-1,3a,7,8-tetraaza-cyclopenta[α]inden-3-ylmethyl]-amine], the Ki was under 1000 nM.
`CCCN(Cc1c(C(F)(F)F)nc2n1CCCN2c1c(C)cc(C)cc1C)CC(F)(F)F` [Example 79, Propyl-(2,2,2-trifluoro-ethyl)-[2-trifluoromethyl-8-(2,4,6-trimethyl-phenyl)-5,6,7,8-tetrahydro-imidazo[1,2-a]pyrimidin-3-ylmethyl]-amine] was tested, and the Ki was under 100 nM.
`CC(C)c1ccc(-n2c3ccccc3n3c(CN(CC4CC4)CC4CC4)c(C(F)(F)F)nc23)c(Br)c1` [Example 187, [8-(2-Bromo-4-isopropyl-phenyl)-2-trifluoromethyl-8H-1,3a,8-triaza-cyclopenta[α]inden-3-ylmethyl]-bis-cyclopropylmethyl-amine] was tested, and the Ki was under 100 nM.
Work on `CCCN(Cc1ccccc1)Cc1c(C(F)(F)F)nc2n(-c3c(C)cc(C)cc3C)c3ncccc3n12` [Example 236, Benzyl-propyl-[2-trifluoromethyl-8-(2,4,6-trimethyl-phenyl)-8H-1,3a,7,8-tetraaza-cyclopenta[α]inden-3-ylmethyl]-amine] yielded a Ki of under 10000 nM.
`C=CCN(CC=C)Cc1c(C(F)(F)F)nc2n(-c3ccc(Cl)cc3Cl)c3ccccc3n12` [Example 184, Diallyl-[8-(2,4-dichloro-phenyl)-2-trifluoromethyl-8H-1,3a,8-triaza-cyclopenta[α]inden-3-ylmethyl]-amine] showed a Ki of under 10000 nM.
Molecule `CCCN(Cc1c(C(F)(F)F)nc2n(-c3ccc(Cl)cc3Cl)c3ccccc3n12)CC1CC1` [Example 178, Cyclopropylmethyl-[8-(2,4-dichloro-phenyl)-2-trifluoromethyl-8H-1,3a,8-triaza-cyclopenta[α]inden-3-ylmethyl]-propyl-amine] has a Ki of under 1000 nM.
`CCN(Cc1c(C(F)(F)F)nc2n(-c3ccc(C(C)C)cc3Br)c3ccccc3n12)CC1CC1` [Example 190, [8-(2-Bromo-4-isopropyl-phenyl)-2-trifluoromethyl-8H-1,3a,8-triaza-cyclopenta[α]inden-3-ylmethyl]-cyclopropylmethyl-ethyl-amine] showed a Ki of under 1000 nM.
`CCCN(Cc1c(C(F)(F)F)nc2n(-c3ccc(C(C)C)cc3Br)c3ccccc3n12)CC(F)(F)C(F)(F)F` [Example 205, [8-(2-Bromo-4-isopropyl-phenyl)-2-trifluoromethyl-8H-1,3a,8-triaza-cyclopenta[α]inden-3-ylmethyl]-(2,2,3,3,3-pentafluoro-propyl)-propyl-amine] gave a Ki of under 10000 nM.
`CCCN(Cc1c(C(F)(F)F)nc2n(-c3c(C)cc(C)cc3C)c(Cl)cn12)CC(F)(F)F` [Example 322, [6-Chloro-2-trifluoromethyl-7-(2,4,6-trimethyl-phenyl)-7H-imidazo[1,2-a]imidazol-3-ylmethyl]-propyl-(2,2,2-trifluoro-ethyl)-amine] showed a Ki of under 10 nM.
Molecule `CCN(Cc1c(C(F)(F)F)nc2n(-c3c(C)cc(C)cc3C)c(Cl)cn12)CC1CC1` [Example 319, [6-Chloro-2-trifluoromethyl-7-(2,4,6-trimethyl-phenyl)-7H-imidazo[1,2-a]imidazol-3-ylmethyl]-cyclopropylmethyl-ethyl-amine] has a Ki of under 10 nM.
For `CCCN(CCc1ccccc1)C(=O)c1c(CC)nc2n1CCN2c1c(C)cc(C)cc1Br` [Example 41, 7-(2-Bromo-4,6-dimethyl-phenyl)-2-ethyl-6,7-dihydro-5H-imidazo[1,2-a]imidazole-3-carboxylic acid phenethyl-propyl-amide], the Ki was under 1000 nM.
Molecule `CCc1nc2n(c1C(=O)N(CCC(F)(F)F)CC1CC1)CCN2c1ccc(C(C)C)cc1Br` [Example 39, 7-(2-Bromo-4-isopropyl-phenyl)-2-ethyl-6,7-dihydro-5H-imidazo[1,2-a]imidazole-3-carboxylic acid cyclopropylmethyl-(3,3,3-trifluoro-propyl)-amide] has a Ki of under 10000 nM.
`CCCCN(Cc1ccccc1)Cc1c(C(F)(F)F)nc2n(-c3c(C)cc(C)cc3C)c3ncccc3n12` [Example 235, Benzyl-butyl-[2-trifluoromethyl-8-(2,4,6-trimethyl-phenyl)-8H-1,3a,7,8-tetraaza-cyclopenta[α]inden-3-ylmethyl]-a mine] gave a Ki of under 10000 nM.
With `Cc1cc(C)c(N2CCCn3c2nc(C(F)(F)F)c3CN(CCC(F)(F)F)Cc2ccc(F)cc2)c(C)c1` [Example 91, (4-Fluoro-benzyl)-[2-trifluoromethyl-8-(2,4,6-trimethyl-phenyl)-5,6,7,8-tetrahydro-imidazo[1,2-a]pyrimidin-3-ylmethyl]-(3,3,3-trifluoro-propyl)-amine] the Ki was under 1000 nM.
In the case of `CCCN(CCC(F)(F)F)Cc1c(C(F)(F)F)nc2n1CCCN2c1c(C)cc(C)cc1Cl` [Example 116, [8-(2-Chloro-4,6-dimethyl-phenyl)-2-trifluoromethyl-5,6,7,8-tetrahydro-imidazo[1,2-a]pyrimidin-3-ylmethyl]-propyl-(3,3,3-trifluoro-propyl)-amine], the Ki is reported as under 1000 nM.
In the case of `CCCN(Cc1ccc([N+](=O)[O-])cc1)Cc1c(C(F)(F)F)nc2n(-c3c(C)cc(C)cc3C)c(Cl)cn12` [Example 313, [6-Chloro-2-trifluoromethyl-7-(2,4,6-trimethyl-phenyl)-7H-imidazo[1,2-a]imidazol-3-ylmethyl]-(4-nitro-benzyl)-propyl-amine], the Ki is reported as under 1000 nM.
`Cc1cc(C)c(N2CCCn3c2nc(C(F)(F)F)c3CN2CCC(c3ccccc3)C2)c(C)c1` (stereo not shown) [Example 72, 3-(3-Phenyl-pyrrolidin-1-ylmethyl)-2-trifluoromethyl-8-(2,4,6-trimethyl-phenyl)-5,6,7,8-tetrahydro-imidazo[1,2-a]pyrimidine] was tested, and the Ki was under 1000 nM.
With `Cc1cc(C)c(N2CCCn3c2nc(C(F)(F)F)c3CN(CC2CC2)CC(F)(F)F)c(Cl)c1` [Example 135, [8-(2-Chloro-4,6-dimethyl-phenyl)-2-trifluoromethyl-5,6,7,8-tetrahydro-imidazo[1,2-a]pyrimidin-3-ylmethyl]-cyclopropylmethyl-(2,2,2-trifluoroethyl)-amine] the Ki was under 100 nM.
